From patent publication US5945125A, “Controlled release tablet” (Temple University, priority 1996, dated 1999)
Values after ≈ are worked out from the molar mass of the structure shown. “Also recorded” adds a separate entry of the source. Structures can show the parent of a compound that is named as a salt. Where two headings read alike, the source gives them in different places. Values belong to the molecule of their own block, whether it stands above or below them.

Key:
[1] = In vitro release of drugs from tablets (USP basket procedure, water, 100 rpm, 37° C.); format: physicochemical; settings: for constancy of release: PEO tablets of MW 0.9×10^6, 2×10^6, 4×10^6 (FIGS. 9-14); for effect of drug loading on release: PEO tablets, different drug loadings
Description: A set of tablet punches with flat surfaces were used to prepare tablets of various diameters, including 7 mm, 8.1 mm, 9.5 mm, and 11 mm. They were charged with the formulation, and the compression of 2000 to 4000 pounds was exerted by turning over the machine by hand.
In vitro release of drugs from the different formulation tablets was carried out by using the USP basket procedure in distilled/deionized water at a stirring rate of 100 rpm and 37° C., if not otherwise stated. Theophylline and diltiazem HCl were chosen as model drugs. The release of theophylline and diltiazem HCl was assayed by a HP.backslash.8252A (Hewlett Packard Corporation) diode-array spectrophotometer at 244 nm and 266 nm, respectively. The release kinetic data (up to 60% release) were treated by equation (1) above.
According to the criteria for release kinetics from a swellable matrix (cylindrical shape), zero-order and anomalous transport kinetics are represented by 0.89 <n<1.0 and 0.45<n<0.89, respectively. A linear regression analysis (Microsoft Excel 5.0) of the logarithmic form of equation (1) was carried out with R^2 ≥0.99.
(§1) A set of tablet punches with flat surfaces were used to prepare the tablets having diameters of 11.1 mm and weights of 550 mg except for the sulfathiazole tablets which were 9.5 mm in diameter and weighed 400 mg. All the tablets were compressed to 4000 pounds.
as §1, with “Similarly, FIGS. 10, 12 and 14 show particular drugs used for testing with their typical solubilities. A” for “A”, “The” for “All the”
A set of tablet punches with flat surfaces were used to prepare the tablets having diameters of 11.1 mm and weights of 550 mg except for the sulfathiazole tablets, which were 9.5 mm in diameter and weighed 400 mg. All the tablets were compressed to 4000 pounds per square inch.

[2] = cited from earlier work
[3] = PEO MW 4×10^6, 20% drug loading
[4] = PEO MW 4×10^6, 39% drug loading

SMILES: O=C(O)Cc1ccccc1Nc1c(Cl)cccc1Cl [diclofenac sodium]
n (release kinetics exponent) ([1]; PEO MW 0.9×10^6, 20% drug loading (FIG. 31)): 0.93 | effect of lactose on release kinetics ([1]; PEO MW 4×10^6, 39% drug vs 20% drug and 19% lactose, same total weight (FIG. 6)): superimposable (except for the final stage of release); also recorded: superimposable (except in the final stage of release) | constancy of release [1]: least constant release; also recorded: constant or near constant release kinetics | effect of drug loading on release [1]: did not significantly change

SMILES: COc1ccc([C@@H]2Sc3ccccc3N(CCN(C)C)C(=O)[C@@H]2OC(C)=O)cc1 [diltiazem HCl, diltiazem hydrochloride]
solubility ([2]; in water): > 50%

SMILES: O=C(O)c1ccccc1O [salicylic acid]
release at which profiles from 20% and 39% loaded tablets cross ([1]; PEO MW 2×10^6 (FIG. 31)): about 50% | release kinetics exponent n [1, 3]: 0.72 | release kinetics exponent n [1, 4]: 0.81 | constancy of release [1]: Constant release rates over the longest period of time

SMILES: Nc1ccc(S(=O)(=O)Nc2ncccn2)cc1 [sulfadiazine]
constancy of release [1]: most constant release over the longest period of time

period of release ([1]; PEO MW 4×10^6 (FIG. 14)): relatively short | release kinetics exponent n ([1]; PEO MW 4×10^6 (FIG. 14)): 1.10
SMILES: Nc1ccc(S(=O)(=O)Nc2ccccn2)cc1 [sulfapyridine]
effect of 39% versus 20% drug loading on release profile ([1]; PEO tablets (FIG. 31)): shifted to the left of the release profiles from 20% loaded tablets

release at which profiles from 20% and 39% loaded tablets cross ([1]; PEO MW 4×10^6 (FIG. 31)): about 50% | release kinetics exponent n [1, 3]: 0.78 | release kinetics exponent n [1, 4]: 0.94 | shape of release profile ([1]; PEO tablets (FIGS. 10, 12, 14)): slightly sigmoidal profile
SMILES: Nc1ccc(S(=O)(=O)Nc2nccs2)cc1 [sulfathiazole]
constancy of release [1]: Constant release rates over the longest period of time | solubility [2]: 590 mg/L (≈ 2310 µM)

SMILES: Cn1c(=O)c2[nH]cnc2n(C)c1=O [theophylline]
release exponent (n) ([1]; PEO MW 0.9×10^6 tablet (FIG. 2)): 0.99 (±0.024) | release exponent (n) ([1]; PEO MW 2×10^6 tablet (FIG. 2)): 0.80 (±0.004) | release exponent (n) ([1]; PEO MW 4×10^6 tablet (FIG. 2)): 0.83 (±0.019) | effect of pH of dissolution medium on release ([1]; PEO tablets (FIG. 3)): not significantly influenced by the pH variation | constancy of release [1]: least constant release; also recorded: constant or near constant release kinetics | effect of drug loading on release [1]: superimposed | solubility ([2]; in water): < 1.0%
